“Also recorded” adds a separate entry of the source.
Tested on: cochlear Lgr5+ progenitor cells
Test: Expansion of Lgr5 cells in 3D culture, Lgr5-EGFP cells counted by flow cytometry
Type: cell-based, mice
Procedure: Neonatal Lgr5-EGFP-IRES-Cre-ER mice (The Jackson Laboratory, strain 8875) were used to analyze the effects of small molecules on cochlear stem cell expansion (see Barker et al., Nature 449, 1003-7 (2007). This strain allowed for visualization and quantification of EGFP cells.
All animal studies were conducted under an approved institutional protocol per National Institutes of Health guidelines. Using neonatal animals, cochleae were dissected and the organ of Corti (sensory epithelium) was separated from the stria vascularis (ion transport epithelium) and the modiolus (nerve tissue). Epithelia were then collected and treated with TrypLE for 15-20 minutes to obtain single cells. The cells were then filtered ([…]) and suspended in a Matrigel (Corning) dome for 3D culture seeded at 0.5 cochlea per well.
Expansion of Lgr5 Cells: Cells were cultured in a 3D system and bathed in a serum free 1:1 mixture of DMEM and F12, supplemented with Glutamax (GIBCO), N2, B27 (Invitrogen), EGF (50 ng/mL; Chemicon), bFGF (50 ng/mL; Chemicon), IGF-1 (50 ng/mL; Chemicon), and small molecules for seven days. Media was changed every other day. Treatments were run in triplicate or quadruplicate.
Quantification of Cell Proliferation: Lgr5 cells were quantified after 7-10 days. Cell colonies were dissociated into single cells using TrypLE. The cells were then stained with propidium iodide (PI) and analyzed using a flow cytometer to count Lgr5-EGFP cells. The percentage of viable Lgr5 cells was plotted against the concentration in GraphPad Prism.

CCn1cc(C(=O)O)c(=O)c2c(N)c(F)c(NC3CCCCC3)cc21 [AS1842856]
expansion of cochlear Lgr5+ progenitor cells in culture (AS1842856 425 nM, background of EFI): elicits the expansion | enrichment of Lgr5 cells according to percentage (AS1842856 (425 nM) combined with VPA (1 mM), background of EFI): enriched according to percentage | Lgr5-GFP colony formation (images of Lgr5+ cell culture) (EFI-AS1842856 alone): promotes Lgr5-GFP colony formation | Lgr5-GFP colony enrichment (less Lgr5-negative cells in culture) (EFI-AS1842856 with VPA added): enriched when VPA is added | concentration dependence of Lgr5+ cell growth, enrichment and expansion of cochlear progenitor cells (background of EFI, range of concentrations): enhances expansion of cochlear progenitor cells concentration-dependent manner; also recorded: concentration-dependent effects
